Measured values reported in ChEMBL document CHEMBL1157539, “Thousands of chemical starting points for antimalarial lead identification” (Nature, 2010).

The compounds below were run on Plasmodium falciparum (assay: GSK_TCMDC: Inhibition of Plasmodium falciparum 3D7 in whole erythrocytes, using parasite LDH activity as an index of growth.). Conditions: Plasmodium falciparum, 3D7.
Assay type: functional, organism-based

**Q.** How did the XC50 turn out when C=C1C(C(=O)OCC)=CN(CC)c2cc(O[C@H]3CCN(C(=O)OC(C)(C)C)C3)ccc21 was run?
**A.** The XC50 was 548 nM.

**Q.** C[C@@H](CC1CCCCC1)NCc1ccccc1O was tested. Which XC50 did it give?
**A.** The XC50 was 932 nM.

**Q.** With Cc1ccc(NC(=O)c2ccnc(N3CCN(c4ccncc4)CC3)c2)cc1F as the compound, how does the XC50 read?
**A.** Its XC50 is 873 nM.

**Q.** NCCC(=O)Nc1ccc(-c2cnc3[nH]cc(-c4ccc(C(=O)O)cc4)c3c2)cn1 was tested. Which XC50 did it give?
**A.** The XC50 was 842 nM.

**Q.** CCCCCCCN1CC[C@@H](CCCc2ccnc3ccc(OCCC4CCNCC4)cc23)[C@@H](CC)C1 was tested. Which XC50 did it give?
**A.** The XC50 was 610 nM.

**Q.** With CC(C)[C@H]1CC[C@H](C)C[C@@H]1OC(=O)N[C@@H](Cc1ccc(O)cc1)C(=O)NC1CCN(Cc2ccc(OCCCN(C)C)cc2)C1 (some centres not stated) as the compound, how does the XC50 read?
**A.** The XC50 was 764 nM.

**Q.** Which XC50 does the source give for COc1cccc(-c2ccc3c(-c4ccc(F)cc4)cnc(N)c3c2)c1 here?
**A.** The XC50 was 807 nM.

**Q.** With O=C(NCc1cccc(F)c1)Nc1ccc(-c2ccc(-c3nc4cc(C(F)(F)F)ccc4[nH]3)cc2)cc1 as the compound, how does the XC50 read?
**A.** The XC50 was 769 nM.

**Q.** With Oc1ccccc1CNC1CCCCC1NCc1ccccc1O (configuration not stated) as the compound, how does the XC50 read?
**A.** Its XC50 is 950 nM.

**Q.** For CC(C)CCNC(=O)c1cnc2c(O)cccc2c1Nc1cccc(NC(=O)c2ccc(F)cc2)c1, which XC50 is on record?
**A.** The XC50 was 913 nM.

**Q.** Which XC50 does the source give for N=C(N)NC(=O)Nc1cc(Br)c(Cl)c(C(F)(F)F)c1 here?
**A.** The XC50 was 758 nM.

**Q.** How did the XC50 turn out when O=C(NCCCCCN1CCCN(C(=O)Nc2ccc(Cl)c(C(F)(F)F)c2)CC1)C1CC1c1ccc(Cl)c(Cl)c1 (configuration not stated) was run?
**A.** Its XC50 is 852 nM.

**Q.** For O=C(CSc1nc(-c2ccccc2Cl)ns1)Nc1ccc2c(c1)OCO2, which XC50 is on record?
**A.** The XC50 was 988 nM.

**Q.** CN(CCCN(C)c1cc(NC(=O)c2ccc(F)cc2)ccn1)Cc1cccc(O)c1 was tested. Which XC50 did it give?
**A.** Its XC50 is 1210 nM.

**Q.** Which XC50 does the source give for CC(C)c1sc(N2CCN(C)CC2)nc1C(=O)Nc1ccc(F)cc1C(F)(F)F here?
**A.** The XC50 was 190 nM.

**Q.** CS(=O)(=O)NCCCNCc1cccc(-c2ccc(-c3nc4cc(C(F)(F)F)ccc4[nH]3)cc2)c1 was tested. Which XC50 did it give?
**A.** Its XC50 is 996 nM.

**Q.** How did the XC50 turn out when CCCCNCc1ccc(OCc2cccc(COc3ccc(CNCCCC)cc3I)c2)c(I)c1 was run?
**A.** The XC50 was 1120 nM.

**Q.** For O=c1c2ccc(Sc3ccccn3)cc2n(-c2ccccc2)c2cc(Sc3ccccn3)ccc12, which XC50 is on record?
**A.** Its XC50 is 203 nM.

**Q.** With CCOc1cc(C)ccc1C1CCN(CCCCNC(=O)c2coc(-c3ccc(Cl)cc3)c2)CC1 as the compound, how does the XC50 read?
**A.** Its XC50 is 914 nM.

**Q.** COc1cc2ncnc(Nc3ccc(OCc4ccccc4)c(I)c3)c2cc1OC was tested. Which XC50 did it give?
**A.** Its XC50 is 712 nM.

**Q.** CCCCC(=O)Nc1nonc1-c1ccc(OCC)c(OCC)c1 was tested. Which XC50 did it give?
**A.** Its XC50 is 912 nM.

**Q.** Which XC50 does the source give for CCc1ccc(NC(=O)N(CCCn2ccnc2)Cc2csc(-c3ccc(CNCc4ccccc4)cc3)n2)cc1 here?
**A.** The XC50 was 757 nM.

**Q.** Which XC50 does the source give for CCCNCc1ccc(-c2ccc(CN(CCOC)C(=O)COc3ccccc3Cl)cc2)nc1 here?
**A.** Its XC50 is 912 nM.

**Q.** How did the XC50 turn out when O=C(CCOc1ccccc1)NCC1CCCO1 (configuration not stated) was run?
**A.** Its XC50 is 1000 nM.

**Q.** How did the XC50 turn out when COc1ccc(N2CCN(CCCCNC(=O)c3ccc(NC(=O)c4ccc(Cl)cc4)cc3)CC2)c(C)c1 was run?
**A.** Its XC50 is 758 nM.

**Q.** For CCN(CC(C)O)C(=O)c1ccc(-c2cccc(-c3nc4cccc(C)c4[nH]3)c2)cc1 (configuration not stated), which XC50 is on record?
**A.** Its XC50 is 639 nM.

**Q.** With Cc1cccc2nc(-c3cccc(-c4cccc(CNC(C)C)c4)c3)[nH]c12 as the compound, how does the XC50 read?
**A.** The XC50 was 336 nM.

**Q.** For O=C(NCC1CC1)C1CCN(C(c2ccccc2)c2ccc(Cl)c(Cl)c2)CC1 (configuration not stated), which XC50 is on record?
**A.** The XC50 was 369 nM.

**Q.** Which XC50 does the source give for CCN(CC)CCOc1ccc(C(O)(C#CC(O)(c2ccccc2)c2ccc(OCCN(CC)CC)cc2)c2ccccc2)cc1 (configuration not stated) here?
**A.** The XC50 was 1310 nM.

**Q.** Which XC50 does the source give for N#Cc1ccc2c(c1)CCN(CCC1CCC(NC(=O)/C=C/c3cccc4cc[nH]c34)CC1)CC2 (configuration not stated) here?
**A.** The XC50 was 1090 nM.

**Q.** How did the XC50 turn out when CCc1cc(NC2CCN(C)CC2)nc(Nc2cccc(OC)c2)n1 was run?
**A.** Its XC50 is 856 nM.

**Q.** Which XC50 does the source give for O=C(c1ccc(F)cc1)N1CCOC(CCN2CCC(c3ccccc3)CC2)(c2ccc(Cl)c(Cl)c2)C1 (configuration not stated) here?
**A.** The XC50 was 749 nM.

**Q.** With CCCC(CNC(=O)c1cc2c(Cl)cc(Cl)cc2[nH]1)CNc1cc(=O)c2ccccc2[nH]1 (configuration not stated) as the compound, how does the XC50 read?
**A.** Its XC50 is 903 nM.

**Q.** Which XC50 does the source give for Clc1nc(Cl)c2c(ccn2Cc2ccccc2)n1 here?
**A.** Its XC50 is 787 nM.

**Q.** Which XC50 does the source give for NC(=O)c1ccccc1OCC(=O)Nc1cccc(-c2ccc(-c3nc4cc(C(F)(F)F)ccc4[nH]3)cc2)c1 here?
**A.** The XC50 was 647 nM.

**Q.** N#Cc1ccc(CN2CCC(Oc3ccc(NC(=O)c4ccco4)cc3Cl)CC2)cc1 was tested. Which XC50 did it give?
**A.** The XC50 was 379 nM.

**Q.** O=C(/C=C/c1ccccc1F)NC1CCC(CCN2CCc3ccc(-c4cccnc4)cc3CC2)CC1 (configuration not stated) was tested. Which XC50 did it give?
**A.** The XC50 was 900 nM.

**Q.** COC(=O)c1sc2ccccc2c1NC(=O)c1ccc(C)c(C)c1 was tested. Which XC50 did it give?
**A.** The XC50 was 1070 nM.

**Q.** Cc1noc(C)c1-c1ccc2c(Nc3ccccc3C(C)(C)C)c(C(=O)NCc3ccc(C(F)(F)F)cc3)cnc2c1 was tested. Which XC50 did it give?
**A.** The XC50 was 762 nM.

**Q.** How did the XC50 turn out when COc1cc(NC(=O)c2ccc3oc4ccccc4c3c2)ccc1OCCN1CCCCC1 was run?
**A.** Its XC50 is 924 nM.

**Q.** How did the XC50 turn out when FC(F)(F)c1ccc2[nH]c(-c3ccc(-c4cccc(CNCc5ccccc5)c4)s3)nc2c1 was run?
**A.** Its XC50 is 153 nM.

**Q.** For Fc1ccc(Nc2ccnc3cc(I)ccc23)c(Cl)c1, which XC50 is on record?
**A.** The XC50 was 1080 nM.

**Q.** How did the XC50 turn out when c1ccc(-n2ncc(CNCc3ccc(-c4cccc(-c5nc6ccccc6[nH]5)c4)cc3)n2)cc1 was run?
**A.** Its XC50 is 1230 nM.

**Q.** For Cc1noc(C)c1-c1ccc2c(Nc3ccccc3C(C)(C)C)c(C(=O)NCc3ccc4c(c3)OCO4)cnc2c1, which XC50 is on record?
**A.** The XC50 was 912 nM.

**Q.** With Cc1ccc(Nc2nc(N)c3ccccc3n2)cc1 as the compound, how does the XC50 read?
**A.** Its XC50 is 839 nM.

**Q.** O=c1[nH]c2c(cc1CNC1CCCCC1)c(-c1ccc(F)cc1)nn2-c1ccccc1 was tested. Which XC50 did it give?
**A.** The XC50 was 804 nM.

**Q.** Cc1ccccc1CNc1noc(-c2c(-c3ccccc3)noc2C)n1 was tested. Which XC50 did it give?
**A.** The XC50 was 902 nM.

**Q.** How did the XC50 turn out when CC(C)NCc1ccc(-c2ccc(-c3nc4cc(C(F)(F)F)ccc4[nH]3)cc2)cc1 was run?
**A.** Its XC50 is 266 nM.

**Q.** How did the XC50 turn out when OC(CNCCCc1ccccc1)c1cc(OCc2ccccc2)cc(OCc2ccccc2)c1 (configuration not stated) was run?
**A.** Its XC50 is 851 nM.

**Q.** How did the XC50 turn out when CNC(=O)CSc1nnc(-c2ccc(C)cc2)c(-c2ccc(C)cc2)n1 was run?
**A.** Its XC50 is 600 nM.

**Q.** NC1CCCN(Cc2ccc(-c3ccc(-c4nc5cc(F)ccc5[nH]4)s3)cc2)C1 (configuration not stated) was tested. Which XC50 did it give?
**A.** The XC50 was 177 nM.

**Q.** Which XC50 does the source give for Nc1nc(N)c2c(ccc3nn(S(=O)(=O)N4CCCC4)cc32)n1 here?
**A.** Its XC50 is 96.6 nM.

**Q.** With COc1ccc(NC(=O)c2ccc(C=Cc3ccc(C(F)(F)F)cc3)cc2)cc1N1CCN(C)CC1 as the compound, how does the XC50 read?
**A.** Its XC50 is 421 nM.

**Q.** O=C(C=Cc1ccc(Cl)c(Cl)c1)NCCCCCN1CCC(CCNC(=O)/C=C/c2ccccc2)CC1 was tested. Which XC50 did it give?
**A.** Its XC50 is 783 nM.

**Q.** Which XC50 does the source give for CNC(=O)c1c(NC(=O)c2cccs2)sc2c1CCCC2 here?
**A.** The XC50 was 818 nM.

**Q.** OC1(c2ccc(Cl)c(C(F)(F)F)c2)CCN(CCOC2c3ccccc3CSc3ccc(Cl)cc32)CC1 (configuration not stated) was tested. Which XC50 did it give?
**A.** The XC50 was 799 nM.

**Q.** CCCCCCOc1ccc2ccccc2c1CNCCCCCCNCc1c(OCCCCCC)ccc2ccccc12 was tested. Which XC50 did it give?
**A.** Its XC50 is 1060 nM.

**Q.** How did the XC50 turn out when CC(C)c1ccc(NC(S)=NN=Cc2ccccn2)cc1 was run?
**A.** The XC50 was 724 nM.

**Q.** For CCCN(CCC)CCCNc1ccc(C(=O)Nc2ccc(C(C)C)cc2)cc1[N+](=O)[O-], which XC50 is on record?
**A.** The XC50 was 709 nM.

**Q.** With CN1CCCC(COc2cc3c(cc2Br)CCN3C(=O)Nc2ccc(-c3ccncc3)c(Cl)c2)C1 (configuration not stated) as the compound, how does the XC50 read?
**A.** The XC50 was 234 nM.

**Q.** With c1cc(CN2CCN(c3ccncc3)CC2)cc(-c2ccc(-c3nc4ccccc4[nH]3)cc2)c1 as the compound, how does the XC50 read?
**A.** Its XC50 is 153 nM.

**Q.** With CCOc1cc(C)ccc1C1CCN(CCCCNC(=O)c2ccc(-c3ccc(Cl)cn3)cc2)CC1 as the compound, how does the XC50 read?
**A.** Its XC50 is 1610 nM.

**Q.** With COc1ccc(-c2nc(NC(=O)Cc3cccc(OC)c3)sc2C)cc1 as the compound, how does the XC50 read?
**A.** The XC50 was 237 nM.

**Q.** With CN(CC(=O)Nc1ccc(F)c(F)c1F)c1ncnc2sc(-c3ccccc3)cc12 as the compound, how does the XC50 read?
**A.** Its XC50 is 874 nM.

**Q.** CCCCNc1c(C(=O)OCC)c(C)nc2c1[nH]c1ccccc12 was tested. Which XC50 did it give?
**A.** The XC50 was 680 nM.

**Q.** With Fc1ccc(Nc2ccnc3cc(-c4cccc(CNCCN5CCOCC5)c4)ccc23)c(Cl)c1 as the compound, how does the XC50 read?
**A.** Its XC50 is 142 nM.

**Q.** For CC1CC(NCCCNc2cc(=O)c3ccccc3[nH]2)c2c(Cl)c(Cl)cc(Cl)c21 (configuration not stated), which XC50 is on record?
**A.** The XC50 was 981 nM.

**Q.** CNCc1ccc(-c2ccc3ccnc(N)c3c2)cc1 was tested. Which XC50 did it give?
**A.** Its XC50 is 262 nM.

**Q.** N#Cc1ccc(N(CC(=O)NCCc2ccccc2)CC2CC2)c2ccccc12 was tested. Which XC50 did it give?
**A.** The XC50 was 734 nM.

**Q.** For Cc1ccc(C(c2nnnn2C2CCCC2)N(Cc2ccco2)Cc2ccccc2Cl)cc1 (configuration not stated), which XC50 is on record?
**A.** Its XC50 is 959 nM.

**Q.** CCCc1ccccc1Nc1nc(C)cc(N(CC)CCCN2CCCCC2)n1 was tested. Which XC50 did it give?
**A.** Its XC50 is 622 nM.

**Q.** O=S(=O)(NCCN1CCCC1)c1ccc(-c2cccc(CNCCc3cccs3)c2)cc1 was tested. Which XC50 did it give?
**A.** Its XC50 is 928 nM.
